Test results as given in patent publication US11753407B2, “Compounds for treating spinal muscular atrophy” (PTC Therapeutics, Inc., priority 2012, dated 2023).

Columns and labels:
[1] = test system: SMN2 minigene mRNA (SMN2-A minigene) in HEK293H cells; assay: SMN2 minigene mRNA splicing RT-qPCR assay in cultured cells; type: cell-based, human; conditions: Homo sapiens, HEK293-H; concentration increasing full length SMN2 mRNA 1.5-fold relative to vehicle-treated cells; HEK293H cells with SMN2-A minigene, 24 hours, 7-point concentration data; read-out: EC1.5x for production of full length SMN2 mRNA
Outline: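 HEK293H cells stably carrying the SMN2-A minigene were treated for 24 h at 37 °C with a 7-point, 3.16-fold dilution series of compound. Multiplex RT-qPCR measured exon 7-containing minigene FL mRNA against GAPDH, expressed relative to vehicle by modified ΔΔCt; the EC1.5× is the concentration giving a 1.5-fold increase.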

[2] = test system: Smn protein in SMA patient fibroblast cells (GM03813); assay: Smn protein assay in cultured cells (SMN HTRF); type: cell-based, human; conditions: SMA patient fibroblast cells, 48 hours; for EC1.5x for Smn protein expression: 7-point concentration curve, SMN HTRF, concentration producing 1.5 times Smn protein vs DMSO vehicle control; for maximum fold (Fold) increase of Smn protein: 7-point concentration data, fold relative to vehicle control
Outline: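 SMA patient fibroblasts (5,000 cells/well, DMEM-10% FBS) were treated for 48 h at 37 °C with a 7-point, 3.16-fold dilution series in triplicate. RIPA lysates were probed by HTRF (anti-SMN d2/kryptate, overnight, room temperature), reading 665/620 nm. EC1.5× is the concentration giving 1.5-fold Smn over DMSO vehicle.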

Row | Compound | melting point [°C] | EC (1.5-fold increase) [1] [µM] | EC1.5x for Smn protein expression [2] | maximum fold (Fold) increase of Smn protein [2]
1 | CN[C@H]1CC[C@@H](c2ccc3nc(-c4ccc(OC)c(OC)c4)cc(=O)n3c2)CC1 [Compound 405, 2-(3,4-dimethoxyphenyl)-7-[cis-4-(methylamino)cyclohexyl]-4H-pyrido[1,2-a]pyrimidin-4-one] | 156 to 158 | 0.1 to 0.3 | *** (an EC1.5× between >0.3 μM and ≤1 μM is indicated by three stars (***)) | **** (a fold increase between >1.5 and ≤1.65 is indicated by four stars (****))
2 | CCc1cc(C2=CCNCC2)cn2c(=O)cc(-c3ccc(OC)c(OC)c3)nc12 [Compound 408, 2-(3,4-dimethoxyphenyl)-9-ethyl-7-(1,2,3,6-tetrahydropyridin-4-yl)-4H-pyrido[1,2-a]pyrimidin-4-one] | 171 to 177 | < 0.1 | – | ** (a fold increase between >1.2 and ≤1.35 is indicated by two stars (**))
3 | Cc1cn2cc(-c3ccc4nc(C5CCNCC5)cc(=O)n4c3)ccc2n1 [Compound 409, 7-(2-methylimidazo[1,2-a]pyridin-6-yl)-2-(piperidin-4-yl)-4H-pyrido[1,2-a]pyrimidin-4-one] | 255 to 258 | < 0.1 | **** (an EC1.5x≤0.3 μM is indicated by four stars (****)) | ***** (a fold increase >1.65 is indicated by five stars (*****))
4 | Cc1cn2cc(-c3ccc4nc(C5=CCN(C)CC5)cc(=O)n4c3)cc(F)c2n1 [Compound 411, 7-(8-fluoro-2-methylimidazo[1,2-a]pyridin-6-yl)-2-(1-methyl-1,2,3,6-tetrahydropyridin-4-yl)-4H-pyrido[1,2-a]pyrimidin-4-one] | 218 to 222 | < 0.1 | – | *** (a fold increase between >1.35 and ≤1.5 is indicated by three stars (***))
5 | Cc1cn2cc(-c3cc(=O)n4cc(C5=CCNCC5)ncc4n3)cc2c(C)n1.Cl.Cl [Compound 413, 2-(1,3-dimethylpyrrolo[1,2-a]pyrazin-7-yl)-7-(1,2,3,6-tetrahydropyridin-4-yl)-4H-pyrazino[1,2-a]pyrimidin-4-one hydrochloride (1:2)] | > 300 | < 0.1 | **** (an EC1.5x≤0.3 μM is indicated by four stars (****)) | **** (a fold increase between >1.5 and ≤1.65 is indicated by four stars (****))
6 | CCc1cc(C2=CCN(C)CC2)cn2c(=O)cc(-c3ccc(OC)c(OC)c3)nc12 [Compound 415, 2-(3,4-dimethoxyphenyl)-9-ethyl-7-(1-methyl-1,2,3,6-tetrahydropyridin-4-yl)-4H-pyrido[1,2-a]pyrimidin-4-one] | 177 to 182 | < 0.1 | – | *** (a fold increase between >1.35 and ≤1.5 is indicated by three stars (***))
7 | COc1ccc(-c2cc(=O)n3cc(N4CCC(NC(C)C)CC4)cc(C)c3n2)cc1OC [Compound 416, 2-(3,4-dimethoxyphenyl)-9-methyl-7-[4-(propan-2-ylamino)piperidin-1-yl]-4H-pyrido[1,2-a]pyrimidin-4-one] | 178 to 183 | < 0.1 | ** (an EC1.5× between >1 μM and ≤3 μM is indicated by two stars (**)) | *** (a fold increase between >1.35 and ≤1.5 is indicated by three stars (***))
8 | CCc1cc(C2=CCN(CC)CC2)cn2c(=O)cc(-c3ccc(OC)c(OC)c3)nc12 [Compound 418, 2-(3,4-dimethoxyphenyl)-9-ethyl-7-(1-ethyl-1,2,3,6-tetrahydropyridin-4-yl)-4H-pyrido[1,2-a]pyrimidin-4-one] | 148 to 153 | < 0.1 | – | *** (a fold increase between >1.35 and ≤1.5 is indicated by three stars (***))
9 | Cc1nc2ccc(-c3cc(=O)n4cc(C5=CCN(C)CC5)ncc4n3)cc2o1 [Compound 422, 2-(2-methyl-1,3-benzoxazol-6-yl)-7-(1-methyl-1,2,3,6-tetrahydropyridin-4-yl)-4H-pyrazino[1,2-a]pyrimidin-4-one] | 240 to 242 | < 0.1 | ** (an EC1.5× between >1 μM and ≤3 μM is indicated by two stars (**)) | *** (a fold increase between >1.35 and ≤1.5 is indicated by three stars (***))

More lines, main results first:

Row | melting point [°C] | Compound | EC (1.5-fold increase) [1] [µM] | EC1.5x for Smn protein expression [2] | maximum fold (Fold) increase of Smn protein [2]
10 | 126 to 129 | COc1ccc(-c2cc(=O)n3cc(C4CCCNC4)ccc3n2)cc1OC (stereo not shown) [Compound 406, 2-(3,4-dimethoxyphenyl)-7-(piperidin-3-yl)-4H-pyrido[1,2-a]pyrimidin-4-one] | 0.3 to 1 | * (An EC1.5× for Smn protein expression between >3 μM and ≤10 μM is indicated by one star (*)) | *** (a fold increase between >1.35 and ≤1.5 is indicated by three stars (***))
11 | 295 to 298 | Cc1cn2cc(-c3ccc4nc(C5CCNCC5)cc(=O)n4c3)cc(F)c2n1 [Compound 410, 7-(8-fluoro-2-methylimidazo[1,2-a]pyridin-6-yl)-2-(piperidin-4-yl)-4H-pyrido[1,2-a]pyrimidin-4-one] | < 0.1 | **** (an EC1.5x≤0.3 μM is indicated by four stars (****)) | ***** (a fold increase >1.65 is indicated by five stars (*****))
12 | 254 to 258 | Cc1cn2cc(-c3cc(=O)n4cc(N5CCN(C6CC6)CC5)ccc4n3)cc(F)c2n1 [Compound 412, 7-(4-cyclopropylpiperazin-1-yl)-2-(8-fluoro-2-methylimidazo[1,2-a]pyridin-6-yl)-4H-pyrido[1,2-a]pyrimidin-4-one] | < 0.1 | **** (an EC1.5x≤0.3 μM is indicated by four stars (****)) | ***** (a fold increase >1.65 is indicated by five stars (*****))
13 | 183 to 189 | COc1ccc(-c2cc(=O)n3cc(N4CCN5CCC[C@H]5C4)cc(C)c3n2)cc1OC [Compound 417, 2-(3,4-dimethoxyphenyl)-7-[(8aS)-hexahydropyrrolo[1,2-a]pyrazin-2(1H)-yl]-9-methyl-4H-pyrido[1,2-a]pyrimidin-4-one] | 0.1 to 0.3 | ** (an EC1.5× between >1 μM and ≤3 μM is indicated by two stars (**)) | **** (a fold increase between >1.5 and ≤1.65 is indicated by four stars (****))
14 | 219 to 224 | COc1ccc(-c2cc(=O)n3cc(N4CCC(N5CCOCC5)CC4)cc(C)c3n2)cc1OC [Compound 419, 2-(3,4-dimethoxyphenyl)-9-methyl-7-[4-(morpholin-4-yl)piperidin-1-yl]-4H-pyrido[1,2-a]pyrimidin-4-one] | 0.1 to 0.3 | – | ** (a fold increase between >1.2 and ≤1.35 is indicated by two stars (**))
15 | 202 to 204 | Cc1cn2nc(-c3cc(=O)n4cc(N5CCNCC5)ccc4n3)cc2cn1 [Compound 420, 2-(6-methylpyrazolo[1,5-a]pyrazin-2-yl)-7-(piperazin-1-yl)-4H-pyrido[1,2-a]pyrimidin-4-one] | < 0.1 | **** (an EC1.5x≤0.3 μM is indicated by four stars (****)) | **** (a fold increase between >1.5 and ≤1.65 is indicated by four stars (****))
